Measured values: patent publication US20210349097A1, “BIOMARKERS FOR A COMBINATION THERAPY COMPRISING LENVATINIB AND EVEROLIMUS” (Eisai R&D Management Co., Ltd., priority 2018, published 2021)

How the values were obtained:
Assay type in all cases: in vivo, human
[1] = tested on: metastatic renal cell carcinoma (RCC); experiment: Phase 2 study in metastatic RCC after prior VEGF-targeted therapy: progression free survival (PFS) by baseline serum biomarker / composite biomarker score
Description: (§1) A Phase 2 study for lenvatinib was performed in patients with metastatic renal cell carcinoma (RCC) following a VEGF-targeted therapy. Patients having metastatic renal cell carcinoma after a prior VEGF-targeted therapy received lenvatinib mesylate (“lenvatinib”), everolimus, or the combination thereof until disease progression or development of unmanageable toxicities. A total of 153 subjects were randomized into 3 treatment arms to receive:
(§2) 1) 18 mg/day lenvatinib (as lenvatinib free base; the same shall apply hereinafter)+5 mg/day everolimus (Arm A [LEN/EVE treatment arm], N=51),
(§3) 2) lenvatinib 24 mg/day (Arm B [LEN treatment arm], N=52), or
(§4) 3) everolimus 10 mg/day (Arm C [EVE treatment arm], N=50).
(§5) Each Cycle consisted of 4 weeks (28 days)
(§6) Blood samples for biomarker assessments were collected from subjects in all 3 treatment arms (LEN/EVE, N=49; LEN, N=51; EVE, N=47; Total, N=147) at Cycle 1 Day 1(pre-treatment). In samples from 145 subjects (94.8% of all Intention to Treat [ITT] population; LEN/EVE, N=49; LEN, N=50; EVE, N=46), 40 candidate biomarkers shown in Table 1 were assayed using 19 preconfigured CustomMAP immunoassay panels and measured by a multiplex flow cytometry-based platform by the manufacturer (Multi-Analyte Profile (MAP)) at a Myriad RBM (Austin, Tex., USA).
(§7) For baseline levels of each serum biomarker, correlation analyses with PFS were performed using univariate Cox regression in each of the 3 arms. Hazard ratio (HR) for biomarkers with continuous values was calculated as a ratio of hazards between measured values with one standard deviation (HR per standard deviation). Baseline serum IL-18BP levels were associated with PFS in the LEN/EVE arm (Table 2). In the following tables, FDR refers to False Discovery Rate, MST refers to Median Survival Time and CI refers to Confidence Interval.
For IL-18BP, dichotomized analysis was performed to correlate baseline serum biomarker levels in subjects with low and high levels with PFS in the 3 arms. The cutoff points were median, first tertile, second tertile, first quartile or third quartile. Association between the groups and PFS was explored using univariate Cox regression and the log-rank test with each of the selected cutoff points. At the second tertile cutoff point, median PFS for the high IL-18BP group (5.6 months) was shorter than that for the low group (17.5 months) in the LEN/EVE arm (Table 3).
(§8) For each biomarker integrated into the CBS, a value of 1 was assigned if the respective baseline biomarker level fell within the range determined to associate with longer survival in the single biomarker cutoff analysis; a value of 0 was assigned if the respective baseline biomarker level was categorized in the range associated with shorter survival. The sum of the individual values (0 vs. 1 for each of the 5 biomarkers) was computed as a CBS for each subject (range 0-5). Patients were then dichotomized per CBS as low and high groups (0 vs. 1-5, 0-1 vs. 2-5, 0-2 vs. 3-5, 0-3 vs. 4-5, and 0-4 vs. 5). Associations between the groups and PFS were explored using univariate Cox regression and the log-rank test with each of the selected dichotomization points in each treatment arm. Interaction P values were estimated by multivariate Cox regression analysis with treatment arm, baseline level and PFS. Associations between the groups and objective response rate (ORR) were also explored using Fisher's exact test.
(§9) For each biomarker integrated into the CBS, a value of 1 was assigned if the respective baseline biomarker level fell within the range determined to associate with longer survival in the single biomarker cutoff analysis; a value of 0 was assigned if the respective baseline biomarker level was categorized in the range associated with shorter survival. The sum of the individual values (0 vs. 1 for each of the 2 biomarkers) was computed as a CBS for each subject (range 0-2). […]

[2] = tested on: metastatic renal cell carcinoma (RCC); experiment: Phase 2 study in metastatic RCC after prior VEGF-targeted therapy: overall survival (OS) by baseline serum biomarker / composite biomarker score
Description: as §1, §2, §3, §4, §5, §6
as §7, with “OS” for “PFS”, “FGF-21, ICAM-1, and M-CSF” for “IL-18BP”, “4).” for “2). In the following tables, FDR refers to False Discovery Rate, MST refers to Median Survival Time and CI refers to Confidence Interval.”
For FGF-21, ICAM-1, and M-CSF, dichotomized analyses were performed to correlate baseline serum biomarker levels in subjects with low and high levels with OS in the 3 arms using univariate Cox regression and the log-rank test at median cutoff point. Low baseline levels of FGF-21, ICAM-1, and M-CSF were associated with longer OS in the LEN/EVE arm (Table 5).
as §8, with “the range previously determined to” for “the range determined to”, “longer survival on single biomarker” for “longer survival in the single biomarker”, “subject (range 0-5; high=favorable survival). Patients were” for “subject (range 0-5). Patients were”, “groups and OS were explored” for “groups and PFS were explored”, “level and OS. Associations between” for “level and PFS. Associations between”
as §8, with “2” for “5”, “0-2).” for “0-5).”, “1-2 and” for “1-5,”, “2).” for “2-5, 0-2 vs. 3-5, 0-3 vs. 4-5, and 0-4 vs. 5).”, “OS” for “PFS”, “Interaction P values were estimated by multivariate Cox regression analysis with treatment arm, baseline level and PFS. Associations between the groups and objective response rate (ORR) were also explored using Fisher's exact test.” left out

[3] = tested on: metastatic renal cell carcinoma (RCC); experiment: Phase 2 study in metastatic RCC after prior VEGF-targeted therapy: objective response rate (ORR) by composite biomarker score
Description: as §1, §2, §3, §4, §5, §6, §8
as §8, with “the range previously determined to” for “the range determined to”, “longer survival on single biomarker” for “longer survival in the single biomarker”, “subject (range 0-5; high=favorable survival). Patients were” for “subject (range 0-5). Patients were”, “groups and OS were explored” for “groups and PFS were explored”, “level and OS. Associations between” for “level and PFS. Associations between”
as §9

[4] = 5-marker CBS (HGF, MIG, IL-18BP, IL-18, ANG-2)
[5] = 5-marker CBS (TIMP-1, M-CSF, IL-18BP, ANG-2, VEGF-A)

CO[C@H]1C[C@@H]2CC[C@@H](C)[C@@](O)(O2)C(=O)C(=O)N2CCCC[C@H]2C(=O)O[C@H]([C@H](C)C[C@@H]2CC[C@@H](OCCO)[C@H](OC)C2)CC(=O)[C@H](C)/C=C(\C)[C@@H](O)[C@@H](OC)C(=O)[C@H](C)C[C@H](C)/C=C/C=C/C=C/1C [EVE, (1R,9S,12S,15R,16E,18R,19R,21R,23S,24E,26E,28E,30S,32S,35R)-1,18-dihydroxy-12-{(1R)-2-[(1S,3R,4R)-4-(2-hydroxyethoxy)-3-methoxycyclohexyl]-1-methylethyl}-19,30-dimethoxy-15,17,21,23,29,35-hexamethyl-11,36-dioxa-4-aza-tricyclo[30.3.1.0^4,9]hexatriaconta-16,24,26,28-tetraene-2,3,10,14,20-pentaone]
mPFS, CBS High (1-2) ([1]; 2-marker CBS (IL-18BP, ANG-2)): 5.5 mo | mPFS, CBS Low (0) ([1]; 2-marker CBS (IL-18BP, ANG-2)): 3.0 mo | mPFS, high CBS score (1-2) ([1]; 2-marker CBS (IL-18BP, ANG-2)): 5.5 months | mPFS, CBS High (3-5) [1, 4]: 3.6 mo | mPFS, CBS Low (0-2) [1, 4]: 5.5 mo | mPFS, high CBS score (3-5) [1, 4]: 3.6 months | MST (median PFS), IL-18BP High Group ([1]; baseline serum IL-18BP high, cutoff quantile 0.67 (second tertile)): 3.5 months | MST (median PFS), IL-18BP Low Group ([1]; baseline serum IL-18BP low, cutoff quantile 0.67 (second tertile)): 5.5 months | HR (95% CI) PFS, IL-18BP low and high groups ([1]; cutoff quantile 0.67 (second tertile), univariate Cox regression): 1.194 | HR (95% CI), baseline IL-18BP with PFS ([1]; univariate Cox regression, HR per standard deviation of baseline serum IL-18BP): 1.207 | HR OS, high CBS (1-2) vs low CBS (0) within arm ([2]; 2-marker CBS (IL-18BP, ANG-2)): 0.461 | mOS, CBS High (1-2) ([2]; 2-marker CBS (IL-18BP, ANG-2)): 17.5 mo | mOS, CBS Low (0) ([2]; 2-marker CBS (IL-18BP, ANG-2)): 11.4 mo | mOS, high CBS score (1-2) ([2]; 2-marker CBS (IL-18BP, ANG-2)): 17.5 months | mOS, low CBS score (0) ([2]; 2-marker CBS (IL-18BP, ANG-2)): 11.4 months | mOS, CBS High (3-5) [2, 5]: 17.4 mo | mOS, CBS Low (0-2) [2, 5]: 15.0 mo | mOS, high CBS score (3-5) [2, 5]: 17.4 months | MST (median OS), FGF-21 High ([2]; baseline FGF-21 high, cutoff quantile 0.5 (median)): 19.5 | MST (median OS), FGF-21 Low ([2]; baseline FGF-21 low, cutoff quantile 0.5 (median)): 15.3 | MST (median OS), ICAM-1 High ([2]; baseline ICAM-1 high, cutoff quantile 0.5 (median)): 18.5 | MST (median OS), ICAM-1 Low ([2]; baseline ICAM-1 low, cutoff quantile 0.5 (median)): 13.3 | MST (median OS), M-CSF High ([2]; baseline M-CSF high, cutoff quantile 0.5 (median)): 15.4 | MST (median OS), M-CSF Low ([2]; baseline M-CSF low, cutoff quantile 0.5 (median)): 17.2 | HR (95% CI) OS, FGF-21 low and high groups ([2]; cutoff quantile 0.5 (median)): 0.741 | HR (95% CI) OS, ICAM-1 low and high groups ([2]; cutoff quantile 0.5 (median)): 0.66 | HR (95% CI) OS, M-CSF low and high groups ([2]; cutoff quantile 0.5 (median)): 1.146 | HR (95% CI), baseline FGF-21 with OS ([2]; univariate Cox regression, HR per standard deviation of baseline serum FGF-21): 0.996 | HR (95% CI), baseline ICAM-1 with OS ([2]; univariate Cox regression, HR per standard deviation of baseline serum ICAM-1): 1.017 | HR (95% CI), baseline M-CSF with OS ([2]; univariate Cox regression, HR per standard deviation of baseline serum M-CSF): 1.366 | ORR, CBS High (1-2) ([3]; 2-marker CBS (IL-18BP, ANG-2)): 6.9% | ORR, CBS Low (0) ([3]; 2-marker CBS (IL-18BP, ANG-2)): 0.0% | ORR, CBS High (3-5) [3, 4]: 5.0% | ORR, CBS Low (0-2) [3, 4]: 4.2% | ORR, CBS High (3-5) [3, 5]: 5.3% | ORR, CBS Low (0-2) [3, 5]: 4.0%
